The numbers were not newly measured in US20080253985A1, “Compositions for Lowering Serum Cholesterol and/or Triglycerides” (priority 2005, published 2008), which cites them from elsewhere.

Where two headings read alike, the source gives them in different places.

The conditions of data set [1]: hoFH patients; ezetimibe 10 mg/day added to atorvastatin or simvastatin 80 mg/day.
For data set [2] the following is noted: dose of 40 mg.
[3] abbreviates: clinical studies, dosages of 80 mg/day or greater.

`O=C(NC1CCN(CCCCC2(C(=O)NCC(F)(F)F)c3ccccc3-c3ccccc32)CC1)c1ccccc1-c1ccc(C(F)(F)F)cc1` [BMS-201038, N-(2,2,2-Trifluorethyl)-9-[4-[4-[[[4′-(trifluoromethyl)[1,1′biphenyl]-2-Yl]carbonyl]amino]-1-piperidinyl]butyl]9H-fluorene-9-carboxamide]: under “patients treated with 25 mg/day”, the adverse events entry was “gastrointestinal disturbances, abnormalities in liver function, and hepatic steatosis”.

On to `Cc1cc(C)c2c3ccccc3n(Cc3ccc([C@@H](C(=O)N[C@H](CO)c4ccccc4)C4CCCC4)cc3)c2n1` [implitapide, (2S)-2-cyclopentyl-2-[4-[(2,4-dimethyl-9H-pyrido[2,3-b]indol-9-yl)methyl]phenyl]-N-[(1S)-2-hydroxy-1-phenylethyl]ethanamide], for which, under setting [3], the adverse events result was “gastrointestinal disturbances, abnormalities in liver function, and hepatic steatosis”; the therapeutic efficacy result is given as “therapeutically effective”. Turning to `O=C1[C@H](CC[C@H](O)c2ccc(F)cc2)[C@@H](c2ccc(O)cc2)N1c1ccc(F)cc1` [ezetimibe], in data set [1], the “total reduction of LDL-C levels” value was 27%. Regarding `CC(C)c1c(C(=O)Nc2ccccc2)c(-c2ccccc2)c(-c2ccc(F)cc2)n1CCC(O)CC(O)CC(=O)O` (centres unmarked) [atorvastatin, 7-[2-(4-fluorophenyl)-5-(1-methylethyl)-3-phenyl-4-(phenylcarbamoyl)-1H-pyrrol-1-yl]-3,5-dihydroxy-heptanoic acid], in data set [2], the “patients achieving goal attainment, LDL <70 mg/dL” value was 23%.
